Results as given in patent US10294202B2, “Pyrrolidinones as herbicides” (FMC Corporation, priority 2013, dated 2019).

Tests used:
giant foxtail = assay: Test A pre-/postemergence herbicide test; format: in vivo, Setaria faberii
Summary of the method: (§1)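 Planted in loam–sand blend; treated the same day preemergence by directed soil spray, while separately grown plants at one- to two-leaf stage got postemergence spray. Compared visually with untreated controls after approximately 10 days; 100 means complete control.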

corn = assay: Test A pre-/postemergence herbicide test; format: in vivo, Zea mays; conditions: Postemergence
Summary of the method: as §1

ragweed = assay: Test A pre-/postemergence herbicide test; format: in vivo, Ambrosia elatior
Summary of the method: as §1

kochia = assay: Test A pre-/postemergence herbicide test; format: in vivo, Kochia scoparia
Summary of the method: as §1

barnyardgrass [1] = assay: Test B flooded paddy test; format: in vivo, Echinochloa crus-galli; conditions: 500 g ai/ha, Flood; scale of 0 to 100 where 0 is no effect and 100 is complete control
Summary of the method: (§2)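 Treatment was made at the 2-leaf stage by dosing the standing floodwater, kept 3 cm above soil level for the whole test. Greenhouse exposure lasted 13 to 15 days. Response is a visual percent rating relative to controls, where a dash indicates no test result.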

sedge, umbrella = assay: Test B flooded paddy test; format: in vivo, Cyperus difformis; conditions: 500 g ai/ha, Flood; scale of 0 to 100 where 0 is no effect and 100 is complete control
Summary of the method: as §2

ryegrass, Italian = assay: Test A pre-/postemergence herbicide test; format: in vivo, Lolium multiflorum
Summary of the method: as §1

barnyardgrass [2] = assay: Test A pre-/postemergence herbicide test; format: in vivo, Echinochloa crus-galli
Summary of the method: as §1

pigweed = assay: Test A pre-/postemergence herbicide test; format: in vivo, Amaranthus retroflexus
Summary of the method: as §1

ducksalad = assay: Test B flooded paddy test; format: in vivo, Heteranthera limosa; conditions: 500 g ai/ha, Flood; scale of 0 to 100 where 0 is no effect and 100 is complete control
Summary of the method: as §2

blackgrass = assay: Test A postemergence herbicide test; format: in vivo, Alopecurus myosuroides
Summary of the method: (§3)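 Plants at the one- to two-leaf stage, 2–10 cm tall, grown in loam/sand pots, received postemergence sprays of the test chemicals. After about 10 days in the greenhouse, injury was scored visually against untreated controls on a 0–100 scale (0 none, 100 complete control).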

wheat = assay: Test A pre-/postemergence herbicide test; format: in vivo, Triticum aestivum; conditions: Postemergence
Summary of the method: as §1

rice = assay: Test B flooded paddy test; format: in vivo, Oryza sativa; conditions: 500 g ai/ha, Flood; scale of 0 to 100 where 0 is no effect and 100 is complete control
Summary of the method: as §2

galium = assay: Test A postemergence herbicide test; format: in vivo, Galium aparine
Summary of the method: as §3

[3] = Postemergence, 125 g ai/ha, visual rating on 0 to 100 scale (0 no effect, 100 complete control), approx. 10 days
[4] = Postemergence, 500 g ai/ha, 0 to 100 scale (0 no effect, 100 complete control)
[5] = Preemergence, 125 g ai/ha, 0 to 100 scale where 0 is no effect and 100 is complete control
[6] = preemergence, 500 g ai/ha, 0 to 100 scale, 0 is no effect and 100 is complete control
[7] = 125 g ai/ha, visual rating on 0 to 100 scale (0 no effect, 100 complete control), approx. 10 days
[8] = 500 g ai/ha, 0 to 100 scale (0 no effect, 100 complete control)
[9] = 125 g ai/ha, visual rating, 0 to 100 scale, 0 no effect, 100 complete control, approximately 10 days, preemergence
[10] = Postemergence, 125 g ai/ha, 0 to 100 scale, 0 is no effect, 100 is complete control
[11] = 125 g ai/ha, 0 to 100 scale, 0 is no effect, 100 is complete control

## O=C1NCC(c2ccc(Cl)c(Cl)c2)C1C(=O)Nc1ccc(F)c(F)c1F (stereo not drawn) [Compound 286]
Giant foxtail; [3]
  Plant response rating, Foxtail, Giant: 60
Giant foxtail; [4]
  Plant response rating, Foxtail, Giant: 70
Giant foxtail; [5]
  Plant response rating, Foxtail, Giant: 80
Giant foxtail; [6]
  Plant response rating, Foxtail, Giant: 80
corn; [7]
  Plant response rating, Corn: 0
corn; [8]
  Plant response rating, Corn: 0
ragweed; [3]
  Plant response rating, Ragweed: 0
ragweed; [4]
  Plant response rating, Ragweed: 0
ragweed; [5]
  Plant response rating, Ragweed: 0
ragweed; [6]
  Plant response rating, Ragweed: 0
kochia; [3]
  Plant response rating, Kochia: 0
kochia; [4]
  Plant response rating, Kochia: 20
kochia; [5]
  Plant response rating, Kochia: 30
kochia; [6]
  Plant response rating, Kochia: 40
Barnyardgrass [1]
  Plant response rating, Barnyardgrass: 15
sedge, umbrella
  Plant response rating, Sedge, Umbrella: 0
ryegrass, Italian; [3]
  Plant response rating, Ryegrass, Italian: 0
ryegrass, Italian; [4]
  Plant response rating, Ryegrass, Italian: 20
ryegrass, Italian; [5]
  Plant response rating, Ryegrass, Italian: 0
ryegrass, Italian; Preemergence, 500 g ai/ha, visual rating on 0 to 100 scale (0 no effect, 100 complete control)
  Ryegrass, Italian plant response rating: 20
Barnyardgrass [2]; [3]
  Plant response rating, Barnyardgrass: 60
Barnyardgrass [2]; [4]
  Plant response rating, Barnyardgrass: 60
Barnyardgrass [2]; [5]
  Plant response rating, Barnyardgrass: 60
Barnyardgrass [2]; [6]
  Plant response rating, Barnyardgrass: 60
pigweed; [3]
  Plant response rating, Pigweed: 0
pigweed; [4]
  Plant response rating, Pigweed: 0
pigweed; [5]
  Plant response rating, Pigweed: 20
pigweed; [6]
  Plant response rating, Pigweed: 30
ducksalad
  Plant response rating, Ducksalad: 75
blackgrass; [7]
  Plant response rating, Blackgrass: 0
blackgrass; [8]
  Plant response rating, Blackgrass: 0
wheat; [7]
  Plant response rating, Wheat: 0
wheat; [8]
  Plant response rating, Wheat: 0
rice
  Plant response rating, Rice: 10
galium; [7]
  Plant response rating, Galium: 0
galium; [8]
  Plant response rating, Galium: 0

## CCCN1CC(c2ccc(C(F)(F)F)cc2)C(C(=O)Nc2cccc(F)c2F)C1=O (stereo not drawn) [Compound 182]
Giant foxtail; [9]
  Plant response rating, Foxtail, Giant: 50
Giant foxtail; [10]
  Plant response rating, Foxtail, Giant: 0
Giant foxtail; Postemergence, 500 g ai/ha
  Foxtail, Giant plant response rating (0 to 100 scale, 0 is no effect, 100 is complete control): 10
Giant foxtail; [6]
  Plant response rating, Foxtail, Giant: 70
corn; [11]
  Plant response rating, Corn: 0
corn; 500 g ai/ha
  Corn plant response rating (0 to 100 scale, 0 is no effect, 100 is complete control): 0
ragweed; [9]
  Plant response rating, Ragweed: 0
ragweed; [10]
  Plant response rating, Ragweed: 0
ragweed; Postemergence, 500 g ai/ha
  Ragweed plant response rating (0 to 100 scale, 0 is no effect, 100 is complete control): 0
ragweed; [6]
  Plant response rating, Ragweed: 0
kochia; [9]
  Plant response rating, Kochia: 0
kochia; [10]
  Plant response rating, Kochia: 0
kochia; Postemergence, 500 g ai/ha
  Kochia plant response rating (0 to 100 scale, 0 is no effect, 100 is complete control): 0
kochia; [6]
  Plant response rating, Kochia: 0
Barnyardgrass [1]
  Plant response rating, Barnyardgrass: 0
sedge, umbrella
  Plant response rating, Sedge, Umbrella: 0
ryegrass, Italian; [9]
  Plant response rating, Ryegrass, Italian: 0
ryegrass, Italian; [10]
  Plant response rating, Ryegrass, Italian: 0
ryegrass, Italian; Postemergence, 500 g ai/ha
  Ryegrass, Italian plant response rating (0 to 100 scale, 0 is no effect, 100 is complete control): 0
ryegrass, Italian; [6]
  Plant response rating, Ryegrass, Italian: 0
Barnyardgrass [2]; [9]
  Plant response rating, Barnyardgrass: 0
Barnyardgrass [2]; [10]
  Plant response rating, Barnyardgrass: 0
Barnyardgrass [2]; Postemergence, 500 g ai/ha
  Barnyardgrass plant response rating (0 to 100 scale, 0 is no effect, 100 is complete control): 0
Barnyardgrass [2]; [6]
  Plant response rating, Barnyardgrass: 0
pigweed; [9]
  Plant response rating, Pigweed: 0
pigweed; [10]
  Plant response rating, Pigweed: 0
pigweed; Postemergence, 500 g ai/ha
  Pigweed plant response rating (0 to 100 scale, 0 is no effect, 100 is complete control): 0
pigweed; [6]
  Plant response rating, Pigweed: 0
ducksalad
  Plant response rating, Ducksalad: 30
blackgrass; [11]
  Plant response rating, Blackgrass: 0
blackgrass; 500 g ai/ha
  Blackgrass plant response rating (0 to 100 scale, 0 is no effect, 100 is complete control): 0
wheat; [11]
  Plant response rating, Wheat: 0
wheat; 500 g ai/ha
  Wheat plant response rating (0 to 100 scale, 0 is no effect, 100 is complete control): 0
rice
  Plant response rating, Rice: 0
galium; [11]
  Plant response rating, Galium: 0
galium; 500 g ai/ha
  Galium plant response rating (0 to 100 scale, 0 is no effect, 100 is complete control): 0

## O=C1NCC(c2ccc(Cl)c(Cl)c2)C1C(=O)Nc1ccccc1Cl (racemic) [Compound 273]
Giant foxtail; [10]
  Plant response rating, Foxtail, Giant: 20
Giant foxtail; [4]
  Plant response rating, Foxtail, Giant: 70
Giant foxtail; [5]
  Plant response rating, Foxtail, Giant: 90
Giant foxtail; [6]
  Plant response rating, Foxtail, Giant: 90
corn; [11]
  Plant response rating, Corn: 0
corn; [8]
  Plant response rating, Corn: 0
ragweed; [3]
  Plant response rating, Ragweed: 0
ragweed; [4]
  Plant response rating, Ragweed: 0
ragweed; [5]
  Plant response rating, Ragweed: 0
ragweed; [6]
  Plant response rating, Ragweed: 0
kochia; [10]
  Plant response rating, Kochia: 0
kochia; [4]
  Plant response rating, Kochia: 0
kochia; [5]
  Plant response rating, Kochia: 0
kochia; [6]
  Plant response rating, Kochia: 70
Barnyardgrass [1]
  Plant response rating, Barnyardgrass: 0
sedge, umbrella
  Plant response rating, Sedge, Umbrella: 0
ryegrass, Italian; [3]
  Plant response rating, Ryegrass, Italian: 0
ryegrass, Italian; [4]
  Plant response rating, Ryegrass, Italian: 0
ryegrass, Italian; [5]
  Plant response rating, Ryegrass, Italian: 0
ryegrass, Italian; [6]
  Plant response rating, Ryegrass, Italian: 0
Barnyardgrass [2]; [10]
  Plant response rating, Barnyardgrass: 10
Barnyardgrass [2]; [4]
  Plant response rating, Barnyardgrass: 30
Barnyardgrass [2]; [5]
  Plant response rating, Barnyardgrass: 50
Barnyardgrass [2]; [6]
  Plant response rating, Barnyardgrass: 80
pigweed; [3]
  Plant response rating, Pigweed: 0
pigweed; [4]
  Plant response rating, Pigweed: 0
pigweed; [5]
  Plant response rating, Pigweed: 0
pigweed; [6]
  Plant response rating, Pigweed: 0
ducksalad
  Plant response rating, Ducksalad: 70
blackgrass; [11]
  Plant response rating, Blackgrass: 0
blackgrass; [8]
  Plant response rating, Blackgrass: 0
wheat; [7]
  Plant response rating, Wheat: 0
wheat; [8]
  Plant response rating, Wheat: 0
rice
  Plant response rating, Rice: 0
galium; [11]
  Plant response rating, Galium: 0
galium; [8]
  Plant response rating, Galium: 50
